Results from US20190331666A1, “METHODS FOR DRUG DISCOVERY USING STEM CELL-DERIVED SCHWANN CELLS” (MEMORIAL SLOAN-KETTERING CANCER CENTER, priority 2016, published 2019).

Key:
STZ-treated C57BL6 mice [1] = experiment: Mouse thermal sensitivity (hot plate) test in STZ-treated mice; format: in vivo; details: seven and eight weeks post STZ, oral in chow ~300 mg/kg daily
Protocol: All procedures were performed following NIH guidelines, and were approved by the local Institutional Animal Care and Use Committee (IACUC). 3-8 weeks old male C57BL6 mice were treated with one dose IP injection of streptozotocin (180 mg/kg, sigma, 85882) to induce pancreatic beta cell death. Blood glucose levels was measured using a standard glucometer (Freestyle Lite) in weekly intervals starting at one week post-treatment, by drawing a drop of blood from tail tip. BP treatment was initiated one week post-streptozotocin treatment. BP was mixed with standard chow at 1.63 mg/gram of chow to be administered orally at ˜300 mg/kg daily. The dose was calculated on the basis of average daily food intake (5.5 gram/day) and initial body weight (30 grams). Thermal nociception was assessed using the hot plate test. The hot plate (Ugo Basile 35100) consisted of a metal surface (55° C.) with a transparent plexiglass cylinder to contain the mouse. […] Typical baseline latencies are 5-10 seconds, with maximal latencies of 30 seconds.

[2] = tested on: pyruvate levels in hESC-SCs; experiment: Pyruvate measurement in hESC-SCs; format: cell-based, human; details: high glucose
Text: (§1) High glucose, low glucose and drug treated SCs and sensory neurons were subjected to biochemical assays for Sorbitol (abcam, ab118968), glucose (abcam, ab65333), Pyruvate (abcam, ab65342) and 2DG uptake (abcam, ab136955) measurements according to manufacturer's instructions. Data was normalizing according to cell numbers and averaged over 3-6 biological replicates.

[3] = tested on: high glucose treated hESC-SCs; experiment: High content screening for drugs reversing glucose-mediated SC cytotoxicity (Prestwick library); format: cell-based, human; details: 30 mM glucose, compounds at 1 μM, 72 hours
Protocol: The chemical compound screening was performed using the Prestwick Chemical Library®. RFP-labeled hESC-SCs were plated in 384 well plates (1,000/well) and treated with 30 mM glucose immediately before addition of the compounds. The compounds were added at 1 μM concentration. 72 hours later, the plates were treated with DAPI for ten minutes, washed twice and fixed for total plate imaging. The number of viable cells was quantified for each well by counting the number of DAPI negative, RFP positive cells. The percentage of dead cells were calculated for each well by dividing the number of DAPI positive cells by total RFP positive cells.
Data are presented as mean±SEM and were derived from at least 3 independent experiments. Statistical analysis was performed using the Student t-test (comparing 2 groups) or ANOVA with Dunnett test (comparing multiple groups against control). Distribution of the raw data approximated normal distribution (Kolmogorov Smirnov normality test) for data with sufficient number of replicates to test for normality. Survival analysis was performed using log rank (Mantel-Cox) test. Z-scores for primary hits were calculated as Z=(x−μ)/σ. X is the migration score value and is 3 for all hit compounds. μ is the mean migration score value and a is the standard deviation for all compounds and DMSO controls

STZ-treated C57BL6 mice [4] = experiment: Transmission electron microscopy of myelin in sciatic nerves of STZ-treated mice; format: in vivo; details: oral in chow ~300 mg/kg daily
Protocol: (§2) All procedures were performed following NIH guidelines, and were approved by the local Institutional Animal Care and Use Committee (IACUC). 3-8 weeks old male C57BL6 mice were treated with one dose IP injection of streptozotocin (180 mg/kg, sigma, 85882) to induce pancreatic beta cell death. Blood glucose levels was measured using a standard glucometer (Freestyle Lite) in weekly intervals starting at one week post-treatment, by drawing a drop of blood from tail tip. BP treatment was initiated one week post-streptozotocin treatment. BP was mixed with standard chow at 1.63 mg/gram of chow to be administered orally at ˜300 mg/kg daily. The dose was calculated on the basis of average daily food intake (5.5 gram/day) and initial body weight (30 grams).

[5] = tested on: patients suffering from neuropathic pain; details: cited from earlier work
[6] = tested on: glucose uptake in hESC-SCs; experiment: Glucose (2DG) uptake in hESC-SCs; format: cell-based, human; details: high glucose
Text: as §1

[7] = tested on: intracellular glucose levels in hESC-SCs; experiment: Intracellular glucose measurement in hESC-SCs; format: cell-based, human; details: high glucose
Text: as §1

[8] = tested on: high glucose treated hESC-SCs; experiment: Dose response validation, SC viability / cell death (LDH); format: cell-based, human
Protocol: To monitor the viability of SCs, cells were assayed for LDH activity using CytoTox 96 cytotoxicity assay kit (Promega, G1780). Briefly, the cells were plated in 96 well plates at 30,000 cells/cm^2. The supernatant and the cell lysate is harvested 24 hours later and assayed for LDH activity using a plate reader (490 nm absorbance). Viability was calculated by dividing the LDH signal of the lysate by total LDH signal (from lysate plus supernatant). The cells were cultured in Schwann cell medium (Sciencell, 1701) on PO/LM/FN coated dishes during the assay. For validation of the selected hit compound (Bupropion HCL, Sigma, B102), the cells were treated with various concentrations of the compound for dose response analysis. The highest non-toxic dose (0.7 μM-based on optimal sorbitol reduction and viability) was used for follow-up experiments.

STZ-treated C57BL6 mice [9] = experiment: Blood glucose in STZ-treated diabetic mice; format: in vivo; details: oral in chow ~300 mg/kg daily
Protocol: as §2

STZ-treated C57BL6 mice [10] = experiment: TUNEL staining of sciatic nerves of STZ-treated mice; format: in vivo; details: oral in chow ~300 mg/kg daily
Protocol: as §2

[11] = tested on: sorbitol levels in hESC-SCs; experiment: Sorbitol measurement in hESC-SCs; format: cell-based, human; details: high glucose treated hESC-SCs
Protocol: High glucose, low glucose and drug treated SCs and sensory neurons were subjected to biochemical assays for Sorbitol (abcam, ab118968), glucose (abcam, ab65333), Pyruvate (abcam, ab65342) and 2DG uptake (abcam, ab136955) measurements according to manufacturer's instructions. Data was normalizing according to cell numbers and averaged over 3-6 biological replicates. For validation of the selected hit compound (Bupropion HCL, Sigma, B102), the cells were treated with various concentrations of the compound for dose response analysis. The highest non-toxic dose (0.7 μM-based on optimal sorbitol reduction and viability) was used for follow-up experiments.

rodent GSK3β homologs = details: cited from earlier work

Compound	response time to thermal stimulation (latency of hind paw withdrawal) (STZ-treated C57BL6 mice [1])	levels of pyruvate [2]	enhancing the viability of high glucose treated hESC-SCs (primary screen) [3]	percentage of damaged myelin in the sciatic nerves (STZ-treated C57BL6 mice [4])	benefit in the treatment of neuropathic pain [5]	glucose uptake [6]	intracellular glucose levels [7]	levels inducing gradual dose-dependent toxicity ([8]; hESC-SCs)	rescuing SC viability ([8]; high glucose treated hESC-SCs, various concentrations)	blood glucose levels (STZ-treated C57BL6 mice [9])	TUNEL+ apoptotic cells in the sciatic nerves (STZ-treated C57BL6 mice [10])	IC50 ([11]; Homo sapiens, read-out: IC50 (dose-response in rescuing SC viability and in decreasing sorbitol levels))	highest non-toxic dose (based on optimal sorbitol reduction and viability) [11]	dose of maximum effect ([11]; dose used for all further studies)	IC50 values against rodent GSK3β homologs (rodent GSK3β homologs)
CC(NC(C)(C)C)C(=O)c1cccc(Cl)c1.Cl (stereo not drawn) [BP, 2-(tert-butylamino)-1-(3-chlorophenyl)propan-1-one;hydrochloride]	significantly improved response time	increased	most potent compound	significantly reduced	some benefit	without affecting	reduced	above 2 μM	dose-response	does not affect glucose levels	significantly fewer apoptotic cells	263 nM	0.7 µM	0.7	–
Cc1c[nH]c(-c2cnc(NCCNc3ccc(C#N)cn3)nc2-c2ccc(Cl)cc2Cl)n1 [CHIR99021, 6-(2-(4-(2,4-dichlorophenyl)-5-(4-methyl-1H-imidazol-2-yl)pyrimidin-2-ylamino)ethylamino)nicotinonitrile]	–	–	–	–	–	–	–	–	–	–	–	–	–	–	nanomolar
